Data reported in US9247759B2, “Identification of human T2R receptors that respond to bitter compounds that elicit the bitter taste in compositions, and the use thereof in assays to identify compounds that inhibit (block) bitter taste in compositions and use thereof” (SENOMYX, INC., priority 2007, dated 2016).
pIC50: −log10 of the molar value. Where two headings read alike, the source gives them in different places.

Tests used:
hT2R14 [1] = biological target: T1, hT2R14 (Homo sapiens (Human), UniProt Q9NYV8); assay: hT2R panel inhibition, transient HEK293 G16g44, agonist Aristolochic Acid 2 μM; format: cell-based; settings: HEK293, compound at 25 μM
Protocol: (§1) Specifically, in order to evaluate the inhibitory selectivity of the Compound C compound, this compound was tested against 22 human T2Rs which were deorphaned by Senomyx. These receptors and the bitter ligands that activate these human T2Rs are reported in earlier patent applications which are incorporated by reference herein. These 22 human T2Rs are hT2R1, 3, 4, 5, 7, 8, 9, 10, 13, 14, 16, 44, 51, 54, 55, 61, 63, 64, 65, 67, 71 and 75. The amino acid and nucleic acid sequences of all of these T2Rs may be found in these earlier patent applications. These human T2Rs were each individually transiently transfected into HEK293 cells that stably express the promiscuous G protein G16g44 and functional assays were effected using these receptors as disclosed in these same patent applications. […] The ligands were used at EC80 concentration levels. The list of bitter ligands utilized and the tested ligand concentrations are contained in Table 5 of this example.

hT2R71 = hT2R71 (Homo sapiens (Human), UniProt P59536); assay: hT2R panel inhibition, transient HEK293 G16g44, agonist Picric Acid 10 μM; format: cell-based; settings: HEK293, compound at 25 μM
Protocol: as §1
(§2) Relating to the foregoing, FIG. 5 contains experimental results wherein Compound C was tested with different agonist compounds. The inhibition activity is represented by the reduction of receptor activity in the presence of Compound C. […] These 13 hT2Rs are hT2R3, 7, 10, 14, 16, 44, 51, 55, 61, 63, 64, 65, and 71.

hT2R61 = hT2R61 (Homo sapiens (Human), UniProt P59537); assay: hT2R panel inhibition, transient HEK293 G16g44, agonist Aristolochic Acid 25 nM; format: cell-based; settings: HEK293, compound at 25 μM
Protocol: as §1, §2

hT2R55 = assay: hT2R panel inhibition, transient HEK293 G16g44, agonist Cinchonine 150 μM; format: cell-based, human; settings: compound at 25 μM; for screening result against bitter receptor 55: receptor activated to EC80 with the corresponding agonist
Protocol: as §1, §2

hT2R16 = hT2R16 (Homo sapiens (Human), UniProt Q9NYV7); assay: hT2R panel inhibition, transient HEK293 G16g44, agonist Salicin 1 mM; format: cell-based; settings: HEK293, compound at 25 μM; receptor activated to EC80 with the corresponding agonist; read-out: screening result against bitter receptor 16
Protocol: as §1, §2

hT2R44 = assay: hT2R panel inhibition, transient HEK293 G16g44, agonist Denatonium 0.5 μM; format: cell-based, human; settings: compound at 25 μM; for screening result against bitter receptor 44: receptor activated to EC80 with the corresponding agonist
Protocol: as §1, §2

hT2R14 [2] = biological target: T1, hT2R14; assay: hT2R14 antagonist high-throughput FLIPR assay, stable cell line with G16g44, agonist aristolochic acid; format: cell-based
In short: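 Compounds were co-applied with 3 μM aristolochic acid, a dose set to reach 70-80% of maximal hT2R14 activation. Read-out was FLIPR fluorescence in a stable HEK293 line co-expressing hT2R14 and G16g44.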

hT2R3 = hT2R3 (Homo sapiens (Human), UniProt Q9NYW6); assay: hT2R panel inhibition, transient HEK293 G16g44, agonist Chloroquine pH6.5 50 μM; format: cell-based; settings: HEK293, compound at 25 μM; receptor activated to EC80 with the corresponding agonist; read-out: screening result against bitter receptor 3
Protocol: as §1, §2

hT2R65 = assay: hT2R panel inhibition, transient HEK293 G16g44, agonist Oleuropein 1 mM; format: cell-based, human; settings: compound at 25 μM; for screening result against bitter receptor 65: receptor activated to EC80 with the corresponding agonist
Protocol: as §1, §2

hT2R63 = assay: hT2R panel inhibition, transient HEK293 G16g44, agonist Caffeine 1 mM or Andrographolide 100 μM; format: cell-based, human; settings: compound at 25 μM; for screening result against bitter receptor 63: receptor activated to EC80 with the corresponding agonist
Protocol: as §1, §2

hT2R67 = assay: hT2R panel inhibition, transient HEK293 G16g44, agonist Andrographolide 5 μM; format: cell-based, human; settings: compound at 25 μM; receptor activated to EC80 with the corresponding agonist
Protocol: as §1, §2

hT2R7 = hT2R7 (Homo sapiens (Human), UniProt Q9NYW3); assay: hT2R panel inhibition, transient HEK293 G16g44, agonist Chloroquine pH6.5 10 mM; format: cell-based; settings: HEK293, compound at 25 μM; receptor activated to EC80 with the corresponding agonist; read-out: screening result against bitter receptor 7
Protocol: as §1, §2

hT2R5 = hT2R5 (Homo sapiens (Human), UniProt Q9NYW4); assay: hT2R panel inhibition, transient HEK293 G16g44, agonist Picoline 10 mM; format: cell-based; settings: HEK293, compound at 25 μM; receptor activated to EC80 with the corresponding agonist; read-out: screening result against bitter receptor 5
Protocol: as §1, §2

hT2R10 = hT2R10 (Homo sapiens (Human), UniProt Q9NYW0); assay: hT2R panel inhibition, transient HEK293 G16g44, agonist Strychnine 50 μM; format: cell-based; settings: HEK293, read-out: screening result against bitter receptor 10, compound at 25 μM; receptor activated to EC80 with the corresponding agonist
Protocol: as §1, §2

hT2R64 = hT2R64 (Homo sapiens (Human), UniProt P59538); assay: hT2R panel inhibition, transient HEK293 G16g44, agonist Aristolochic Acid 1 μM; format: cell-based; settings: HEK293, compound at 25 μM; receptor activated to EC80 with the corresponding agonist; read-out: screening result against bitter receptor 64
Protocol: as §1, §2

hT2R54 = assay: hT2R panel inhibition, transient HEK293 G16g44, agonist Ranitidine 5 mM; format: cell-based, human; settings: compound at 25 μM
Protocol: as §1, §2

[3] = receptor activated to EC80 with the corresponding agonist, read-out: screening result against bitter receptor 14
[4] = receptor activated to EC80 with the corresponding agonist, read-out: screening result against bitter receptor 71
[5] = receptor activated to EC80 with the corresponding agonist, read-out: screening result against bitter receptor 61
[6] = receptor activated to EC80 with agonist, read-out: inhibition of bitter receptor 14
[7] = receptor activated to EC80 with agonist

Sequence of hT2R3 (Q9NYW6 whole entry): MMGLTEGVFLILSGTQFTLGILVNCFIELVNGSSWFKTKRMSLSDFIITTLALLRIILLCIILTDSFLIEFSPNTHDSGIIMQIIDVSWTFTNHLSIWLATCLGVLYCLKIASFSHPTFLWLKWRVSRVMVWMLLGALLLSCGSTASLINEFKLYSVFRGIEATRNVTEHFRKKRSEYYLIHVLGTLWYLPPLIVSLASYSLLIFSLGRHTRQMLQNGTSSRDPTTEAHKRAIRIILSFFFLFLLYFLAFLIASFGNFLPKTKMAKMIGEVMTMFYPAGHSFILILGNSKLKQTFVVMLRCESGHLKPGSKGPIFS
Sequence of hT2R64 (P59538 whole entry): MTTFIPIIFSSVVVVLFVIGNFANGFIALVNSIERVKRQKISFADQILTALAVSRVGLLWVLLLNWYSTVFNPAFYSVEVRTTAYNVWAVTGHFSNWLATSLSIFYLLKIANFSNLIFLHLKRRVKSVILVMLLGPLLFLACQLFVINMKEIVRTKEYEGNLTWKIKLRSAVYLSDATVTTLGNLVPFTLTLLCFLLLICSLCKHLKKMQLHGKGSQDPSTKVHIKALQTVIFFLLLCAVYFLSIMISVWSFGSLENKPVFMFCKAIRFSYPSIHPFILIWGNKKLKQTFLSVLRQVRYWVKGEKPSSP
T1 sequence (Q9NYV8 whole entry): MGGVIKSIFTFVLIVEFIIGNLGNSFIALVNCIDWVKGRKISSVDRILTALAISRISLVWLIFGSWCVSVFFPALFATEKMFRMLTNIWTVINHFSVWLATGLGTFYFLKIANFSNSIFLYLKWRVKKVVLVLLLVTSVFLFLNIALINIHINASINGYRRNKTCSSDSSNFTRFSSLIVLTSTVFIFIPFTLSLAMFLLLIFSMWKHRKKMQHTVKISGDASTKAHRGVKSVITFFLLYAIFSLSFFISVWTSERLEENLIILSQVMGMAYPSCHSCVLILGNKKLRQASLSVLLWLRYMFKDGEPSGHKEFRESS
Sequence of hT2R16 (Q9NYV7 whole entry): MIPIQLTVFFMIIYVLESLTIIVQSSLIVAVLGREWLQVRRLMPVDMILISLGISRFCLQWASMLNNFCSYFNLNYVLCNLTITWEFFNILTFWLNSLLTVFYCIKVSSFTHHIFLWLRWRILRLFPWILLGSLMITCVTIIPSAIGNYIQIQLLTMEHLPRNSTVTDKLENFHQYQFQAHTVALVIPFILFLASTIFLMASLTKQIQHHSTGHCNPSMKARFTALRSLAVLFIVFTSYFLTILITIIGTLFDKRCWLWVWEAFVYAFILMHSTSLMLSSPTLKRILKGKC
Sequence of hT2R5 (Q9NYW4 whole entry): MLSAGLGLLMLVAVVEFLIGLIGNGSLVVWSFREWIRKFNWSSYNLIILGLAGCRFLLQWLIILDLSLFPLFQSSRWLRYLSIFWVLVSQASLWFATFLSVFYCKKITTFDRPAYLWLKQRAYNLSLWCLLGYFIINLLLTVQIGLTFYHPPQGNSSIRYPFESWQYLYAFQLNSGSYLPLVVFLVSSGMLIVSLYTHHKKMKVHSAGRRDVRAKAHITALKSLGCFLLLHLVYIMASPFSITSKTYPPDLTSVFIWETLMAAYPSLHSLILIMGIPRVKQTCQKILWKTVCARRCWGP
Sequence of hT2R61 (P59537 whole entry): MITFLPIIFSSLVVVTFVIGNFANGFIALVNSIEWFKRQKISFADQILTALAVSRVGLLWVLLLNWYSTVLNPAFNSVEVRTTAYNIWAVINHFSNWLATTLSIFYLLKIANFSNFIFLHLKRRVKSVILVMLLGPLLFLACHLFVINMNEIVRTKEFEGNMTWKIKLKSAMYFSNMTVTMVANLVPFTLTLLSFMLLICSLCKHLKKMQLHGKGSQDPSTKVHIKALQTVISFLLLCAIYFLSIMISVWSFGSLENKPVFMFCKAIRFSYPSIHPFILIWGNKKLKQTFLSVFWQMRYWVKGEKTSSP
Sequence of hT2R7 (Q9NYW3 whole entry): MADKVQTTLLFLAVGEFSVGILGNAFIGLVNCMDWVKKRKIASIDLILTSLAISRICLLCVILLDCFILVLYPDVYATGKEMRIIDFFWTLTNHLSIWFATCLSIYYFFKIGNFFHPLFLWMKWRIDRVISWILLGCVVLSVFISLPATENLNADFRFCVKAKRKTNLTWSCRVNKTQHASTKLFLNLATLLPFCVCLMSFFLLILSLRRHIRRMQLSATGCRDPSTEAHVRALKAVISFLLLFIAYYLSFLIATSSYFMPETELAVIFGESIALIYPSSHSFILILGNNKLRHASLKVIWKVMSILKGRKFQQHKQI
Sequence of hT2R71 (P59536 whole entry): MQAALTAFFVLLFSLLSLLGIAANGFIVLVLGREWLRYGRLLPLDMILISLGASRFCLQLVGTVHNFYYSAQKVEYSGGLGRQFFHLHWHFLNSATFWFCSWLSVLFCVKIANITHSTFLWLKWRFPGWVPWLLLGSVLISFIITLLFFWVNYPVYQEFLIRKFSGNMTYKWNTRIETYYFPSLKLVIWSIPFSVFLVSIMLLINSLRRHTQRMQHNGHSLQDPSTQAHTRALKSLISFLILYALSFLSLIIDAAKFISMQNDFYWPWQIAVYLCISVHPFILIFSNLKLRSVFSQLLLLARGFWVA
Sequence of hT2R10 (Q9NYW0 whole entry): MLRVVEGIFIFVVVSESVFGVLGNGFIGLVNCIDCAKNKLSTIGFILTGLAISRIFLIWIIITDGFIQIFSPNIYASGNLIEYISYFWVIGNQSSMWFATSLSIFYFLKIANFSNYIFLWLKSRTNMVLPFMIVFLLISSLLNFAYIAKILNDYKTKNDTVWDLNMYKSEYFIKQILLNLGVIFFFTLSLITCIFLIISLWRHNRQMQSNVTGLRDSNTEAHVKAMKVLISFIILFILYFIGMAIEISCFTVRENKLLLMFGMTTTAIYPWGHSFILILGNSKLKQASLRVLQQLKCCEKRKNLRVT

Structure (SMILES) | inhibition at 25 µM (hT2R14 [1]; [3]) | inhibition at 25 µM (hT2R71; [4]) | inhibition at 25 µM (hT2R61; [5]) | screening result against bitter receptor 55 (hT2R55) | inhibition at 25 µM (hT2R16) | screening result against bitter receptor 44 (hT2R44) | inhibition at 25 µM (hT2R3) | screening result against bitter receptor 63 (hT2R63) | screening result against bitter receptor 67 (hT2R67) | inhibition at 25 µM (hT2R7) | inhibition at 25 µM (hT2R5) | inhibition at 25 µM (hT2R64) | also measured
COc1ccc(CN(Cc2ccccc2)S(=O)(=O)c2ccc(-c3nn[nH]n3)cc2)cc1 [Example 5-46, N-benzyl-N-(4-methoxybenzyl)-4-(1H-tetrazol-5-yl)benzene-sulfonamide] | > 80% | 60 to 80% | > 80% | + (20% to 40% inhibition = +) | 20 to 40% | ++ (40% to 60% inhibition = ++) | 20 to 40% | +++ (60% to 80% inhibition = +++) | ++ (40% to 60% inhibition = ++) | 20 to 40% |  |  | pIC50 (hT2R14 [2]; read-out: IC50 on hT2R14 bitter receptor): 5.44; screening result against bitter receptor 65 (hT2R65): ++ (40% to 60% inhibition = ++)
O=C(O)c1ccc(S(=O)(=O)NCc2ccco2)cc1 [Example 5-54, 4-(N-(furan-2-ylmethyl)sulfamoyl)benzoic acid] |  |  |  |  |  |  | 20 to 40% |  | + (20% to 40% inhibition = +) |  |  |  | 
N#Cc1ccccc1CN(Cc1ccccc1)S(=O)(=O)c1ccc(C(=O)O)cc1 [Example 5-92, 4-(N-benzyl-N-(2-cyanobenzyl)sulfamoyl)benzoic acid] | > 80% | 40 to 60% | > 80% | ++++ (80% or greater inhibition = ++++) | 20 to 40% | ++++ (80% or greater inhibition = ++++) | 20 to 40% | ++++ (80% or greater inhibition = ++++) |  | 20 to 40% | 20 to 40% | > 80% | inhibition at 25 µM (hT2R10): 20 to 40%
COc1ccc(CN(Cc2ccc(C)o2)S(=O)(=O)c2ccc(C(=O)O)cc2)cc1 [Example 5-63, 4-(N-(4-methoxybenzyl)-N-((5-methylfuran-2-yl)methyl)sulfamoyl)benzoic acid] |  | 20 to 40% |  | +++ (60% to 80% inhibition = +++) |  |  | 20 to 40% | +++ (60% to 80% inhibition = +++) | + (20% to 40% inhibition = +) |  | 20 to 40% | 40 to 60% | 
COc1ccc(CN(Cc2cccnc2)S(=O)(=O)c2ccc(C(=O)O)cc2)cc1 [Example 5-88, 4-(N-(4-methoxybenzyl)-N-(pyridin-3-ylmethyl)sulfamoyl)benzoic acid] | 20 to 40% | 20 to 40% | 40 to 60% |  |  | + (20% to 40% inhibition = +) | 20 to 40% | +++ (60% to 80% inhibition = +++) | + (20% to 40% inhibition = +) |  |  | 20 to 40% | 
Cn1c(=O)c2cc(S(=O)(=O)Nc3ccc4c(c3)OCCO4)ccc2n(C)c1=O [Example 6-6, N-(2,3-dihydrobenzo[b][1,4]dioxin-6-yl)-1,3-dimethyl-2,4-dioxo-1,2,3,4-tetrahydroquinazoline-6-sulfonamide] |  |  |  |  |  |  |  |  |  |  |  |  | inhibition at 25 µM (hT2R14 [1]; [6]): > 80%; screening result against bitter receptor 55, printed as a number (meaning not defined) (hT2R55; receptor activated to EC80 with agonist, numeric cell): 210; pIC50 (hT2R14 [2]; Table D, read-out: hT2R14 IC50): 6.15; inhibition of bitter receptor 54 (hT2R54; [7]): + (20% to 40% inhibition = +)
COc1ccc(N(Cc2ccccc2)S(=O)(=O)c2ccc(C(=O)O)cc2)cc1 [Example 5-35, 4-(N-benzyl-N-(4-methoxyphenyl)sulfamoyl)benzoic acid] | 20 to 40% | 40 to 60% | > 80% | +++ (60% to 80% inhibition = +++) | 20 to 40% | + (20% to 40% inhibition = +) | 20 to 40% | +++ (60% to 80% inhibition = +++) |  | 20 to 40% | 20 to 40% | 20 to 40% | screening result against bitter receptor 54 (hT2R54; receptor activated to EC80 with the corresponding agonist): + (20% to 40% inhibition = +)
Cn1c(=O)c2cc(S(=O)(=O)Nc3ccc4c(c3)OCO4)ccc2n(C)c1=O [Example 6-5, N-(benzo[d][1,3]dioxol-5-yl)-1,3-dimethyl-2,4-dioxo-1,2,3,4-tetrahydroquinazoline-6-sulfonamide] |  |  |  |  |  |  |  |  |  |  |  |  | inhibition at 25 µM (hT2R14 [1]; [6]): > 80%; inhibition at 25 µM (hT2R71; receptor activated to EC80 with agonist, read-out: inhibition of bitter receptor 71): 60 to 80%; inhibition at 25 µM (hT2R61; receptor activated to EC80 with agonist, read-out: inhibition of bitter receptor 61): 20 to 40%; inhibition of bitter receptor 44 (hT2R44; [7]): ++ (40% to 60% inhibition = ++); pIC50 (hT2R14 [2]; Table D, read-out: hT2R14 IC50): 6.58; inhibition of bitter receptor 65 (hT2R65; [7]): ++ (40% to 60% inhibition = ++); inhibition of bitter receptor 63 (hT2R63; [7]): ++++ (80% or greater inhibition = ++++)
COc1ccc(CN(Cc2ccccn2)S(=O)(=O)c2ccc(C(=O)O)cc2)cc1 [Example 5-87, 4-(N-(4-methoxybenzyl)-N-(pyridin-2-ylmethyl)sulfamoyl)benzoic acid] |  |  | 40 to 60% |  |  |  |  | + (20% to 40% inhibition = +) | + (20% to 40% inhibition = +) |  |  | 20 to 40% | 
COc1ccc(CN(Cc2ccccc2)S(=O)(=O)c2ccc(C(=O)O)cc2)cn1 [Example 5-90, 4-(N-benzyl-N-((6-methoxypyridin-3-yl)methyl)sulfamoyl)benzoic acid] | > 80% | 60 to 80% | > 80% | +++ (60% to 80% inhibition = +++) | 20 to 40% | +++ (60% to 80% inhibition = +++) | 40 to 60% | ++++ (80% or greater inhibition = ++++) |  | 60 to 80% | 20 to 40% | 60 to 80% | screening result against bitter receptor 65 (hT2R65): ++ (40% to 60% inhibition = ++); inhibition at 25 µM (hT2R10): 40 to 60%
O=C(O)c1ccc(S(=O)(=O)N(Cc2ccccc2)Cc2ccc(O)cc2)cc1 [Example 5-99, 4-(N-benzyl-N-(4-hydroxybenzyl)sulfamoyl)benzoic acid] | > 80% | 60 to 80% | > 80% | + (20% to 40% inhibition = +) | 20 to 40% | +++ (60% to 80% inhibition = +++) |  | ++++ (80% or greater inhibition = ++++) | ++ (40% to 60% inhibition = ++) | 20 to 40% |  | 60 to 80% | pIC50 (hT2R14 [2]; Table C, read-out: hT2R14 IC50): 5.28; screening result against bitter receptor 65 (hT2R65): ++ (40% to 60% inhibition = ++)
